# Test results taken from US20220047569A1, “METHOD AND COMPOUND FOR USE, IN TREATING AND/OR PREVENTING NETOSIS” (Jubilant EpiPad LLC, priority 2020, published 2022).
# System: Histone H3 Citrullination in Neutrophils
# Test: Citrullination ELISA (Citrullinated Histone H3) in calcium ionophore stimulated neutrophils
# Type: cell-based
# Settings: Neutrophil; human neutrophils, 25 μM calcium ionophore, CitH3 ELISA
# Summary of the method: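 Freshly isolated human donor neutrophils in RPMI with 2% BSA and 1 mM CaCl2 were pre-incubated 30 min with compound (10, 1, 0.1 μM), then stimulated 30 min with 25 μM calcium ionophore. After S7 nuclease digestion, lysates were assayed by citrullinated histone H3 ELISA (450 nm); IC50 from sigmoidal fits.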
row,SMILES,IC50
1,"N[C@@H]1CCCN(C(=O)c2cc3c4c(c2)nc(-c2cc5ccccc5n2Cc2ccccc2F)n4CCN3)C1 [Compound 156, (R)-(3-aminopiperidin-1-yl)(2-(1-(2-fluorobenzyl)-1H-indol-2-yl)-5,6-dihydro-4H-imidazo[1,5,4-de]quinoxalin-8-yl)methanone]",< 100 nM
2,"COc1ccc2cc(-c3nc4cc(C(=O)N5CCC[C@@H](N)C5)cc5c4n3CCN5)n(CC3CC3)c2c1 [Compound 159, (R)-(3-aminopiperidin-1-yl)(2-(1-(cyclopropylmethyl)-6-methoxy-1H-indol-2-yl)-5,6-dihydro-4H-imidazo[1,5,4-de]quinoxalin-8-yl)methanone]",100 to 1000 nM
3,"COc1ccc2cc(-c3nc4cc(C(=O)N5CCC[C@@H](N)C5)cc5c4n3CCN5C)n(CC3CC3)c2c1 [Compound 160, (R)-(3-aminopiperidin-1-yl)(2-(1-(cyclopropylmethyl)-6-methoxy-1H-indol-2-yl)-6-methyl-5,6-dihydro-4H-imidazo[1,5,4-de]quinoxalin-8-yl)methanone]",< 100 nM
4,"CN1CCn2c(-c3cc4cc(F)ccc4n3CC3CC3)nc3cc(C(=O)N4CCC[C@@H](N)C4)cc1c32 [Compound 161, (R)-(3-aminopiperidin-1-yl)(2-(1-(cyclopropylmethyl)-5-fluoro-1H-indol-2-yl)-6-methyl-5,6-dihydro-4H-imidazo[1,5,4-de]quinoxalin-8-yl)methanone]",< 100 nM
5,"N[C@@H]1CCCN(C(=O)c2cc3c4c(c2)nc(-c2cc5cc(F)c(F)cc5n2CC2CC2)n4CCN3)C1 [Compound 163, (R)-(3-aminopiperidin-1-yl)(2-(1-(cyclopropylmethyl)-5,6-difluoro-1H-indol-2-yl)-5,6-dihydro-4H-imidazo[1,5,4-de]quinoxalin-8-yl)methanone]",< 100 nM
6,"N[C@@H]1CCCN(C(=S)c2cc3c4c(c2)nc(-c2cc5ccccc5n2CC2CC2)n4CCN3)C1 [Compound 172, (R)-(3-aminopiperidin-1-yl)(2-(1-(cyclopropylmethyl)-1H-indol-2-yl)-5,6-dihydro-4H-imidazo[1,5,4-de]quinoxalin-8-yl)methanethione]",< 100 nM

# Next, values leading:
row,IC50,SMILES
1,< 100 nM,"N[C@@H]1CCCN(C(=O)c2cc3c4c(c2)nc(-c2cc5ccccc5n2Cc2cccnc2)n4CCN3)C1 [Compound 152, (R)-(3-aminopiperidin-1-yl)(2-(1-(pyridin-3-ylmethyl)-1H-indol-2-yl)-5,6-dihydro-4H-imidazo[1,5,4-de]quinoxalin-8-yl)methanone]"
2,< 100 nM,"N[C@@H]1CCCN(C(=O)c2cc3c4c(c2)nc(-c2cc5cc(Br)ccc5n2CC2CC2)n4CCN3)C1 [Compound 153, (R)-(3-aminopiperidin-1-yl)(2-(5-bromo-1-(cyclopropylmethyl)-1H-indol-2-yl)-5,6-dihydro-4H-imidazo[1,5,4-de]quinoxalin-8-yl)methanone]"
3,100 to 1000 nM,"N[C@@H]1CCCN(C(=O)c2cc3c4c(c2)nc(-c2cc5c(F)cccc5n2CC2CC2)n4CCN3)C1 [Compound 166, (R)-(3-aminopiperidin-1-yl)(2-(1-(cyclopropylmethyl)-4-fluoro-1H-indol-2-yl)-5,6-dihydro-4H-imidazo[1,5,4-de]quinoxalin-8-yl)methanone]"
4,100 to 1000 nM,"Cc1cccc2cc(-c3nc4cc(C(=O)N5CCC[C@@H](N)C5)cc5c4n3CCN5)n(CC3CC3)c12 [Compound 170, (R)-(3-aminopiperidin-1-yl)(2-(1-(cyclopropylmethyl)-7-methyl-1H-indol-2-yl)-5,6-dihydro-4H-imidazo[1,5,4-de]quinoxalin-8-yl)methanone]"
5,< 100 nM,"CC(=O)N1CCn2c(-c3cc4ccccc4n3CC3CC3)nc3cc(C(=O)N4CCC[C@@H](N)C4)cc1c32 [Compound 171, (R)-1-(8-(3-aminopiperidine-1-carbonyl)-2-(1-(cyclopropylmethyl)-1H-indol-2-yl)-4,5-dihydro-6H-imidazo[1,5,4-de]quinoxalin-6-yl)ethan-1-one]"
